How the values were obtained:
human α3β4 = biological target: T1, human α3β4 (Homo sapiens, UniProt P30926+P32297); assay: Calcium flux inhibition, CHO-human α3β4 cells; assay type: cell-based
T1 construct: host or cells: CHO
Experimental: (§1) CHO-human α3β4 cells (obtained from ChanTest, Cleveland, Ohio, catalog #CT6021) were maintained in proliferative growth phase in Ham's F12 (VWR) with 10% fetal bovine serum (Invitrogen), 0.25 mg/mL geneticin; 0.4 mg/ml zeocin. The amino acid sequences encoded by the transfected cDNA constructs used to generate the CHO-human α3β4 cells are identical to the translated sequences for GenBank accession numbers NM_000743.2 and NM_000750.3, respectively.
(§2) Forty-eight hours prior to each experiment, cells were plated in 96 well black-walled, clear bottom plates (Corning, Corning, N.Y.) at 60-100,000 cells/well. On the day of the experiment, growth medium was gently removed, 200 μL 1×FLIPR Calcium 4 Assay reagent (Molecular Devices, Sunnyvale, Calif.) in assay buffer (20 mM HEPES, 7 mM TRIS base, 4 mM CaCl2, 5 mM D-glucose, 0.8 mM MgSO4, 5 mM KCl, 0.8 mM MgCl2, 120 mM N-methyl D-glucamine, 20 mM NaCl, pH 7.4 for SH-EP1-human α4β2 cells or 10 mM HEPES, 2.5 mM CaCl2, 5.6 mM D-glucose, 0.8 mM MgSO4, 5.3 mM KCl, 138 mM NaCl, pH 7.4 with TRIS-base for all other cell lines) was added to each well and plates were incubated at 37° C. for 1 hour (29° C. for the 29° C.-treated SH-EP1-human α4β2 cells). For inhibition studies, competitor compound (10 pM-10 μM) was added at the time of dye addition. The plates were removed from the incubator and allowed to equilibrate to room temperature. Plates were transferred to a FLIPR Tetra fluorometric imaging plate reader (Molecular Devices) for addition of compound and monitoring of fluorescence (excitation 485 nm, emission 525 nm). The amount of calcium flux was compared to both a positive (nicotine) and negative control (buffer alone). The positive control was defined as 100% response and the results of the test compounds were expressed as a percentage of the positive control. For inhibition studies, the agonist nicotine was used at concentrations of 1 μM for SH-EP1-human α4β2 treated at 29° C. (HS), 10 μM for SH-EP1-human α4β2 maintained at 37° C. (LS), and 20 μM for SH-SY5Y cells or CHO_human α3β4.

Nicotinic, human α4β2 = Nicotinic, human α4β2 (Homo sapiens, UniProt P17787+P43681); assay: Competition binding, human α4β2 nicotinic receptor ([3H]nicotine)
Experimental: (§3) SH-EP1-human α4β2 (Eaton et al., 2003), cell lines were obtained from Dr. Ron Lukas (Barrow Neurological Institute). Cells were maintained in proliferative growth phase in Dulbecco's modified Eagle's medium (Invitrogen, Carlsbad, Calif.) with 10% horse serum (Invitrogen), 5% fetal bovine serum (HyClone, Logan Utah), 1 mM sodium pyruvate, 4 mM L-glutamine. For maintenance of stable transfectants, the α4β2 cell media was supplemented with 0.25 mg/mL zeocin and 0.13 mg/mL hygromycin B.
(§4) Cells were harvested in ice-cold PBS, pH 7.4, then homogenized with a Polytron (Kinematica GmbH, Switzerland). Homogenates were centrifuged at 40,000 g for 20 minutes (4° C.). The pellet was re-suspended in PBS and protein concentration determined using the Pierce BCA Protein Assay kit (Pierce Biotechnology, Rockford, Ill.).
(§5) Binding to nicotinic receptors was assayed on membranes using standard methods adapted from published procedures (Lippiello and Fernandes 1986; Davies et al., 1999). In brief, membranes were reconstituted from frozen stocks and incubated for 2 h on ice in 150 μl assay buffer (50 mM Tris, 154 mM NaCl, pH 7.4) in the presence of competitor compound (0.001 nM to 100 μM) and radioligand. [^3H]-nicotine (L-(−)-[N-methyl-^3H]-nicotine, 69.5 Ci/mmol, Perkin-Elmer Life Sciences, Waltham, Mass.) was used for human α4β2 binding studies. [^3H]-epibatidine (52 Ci/mmol, Perkin-Elmer Life Sciences) was used for binding studies at the other nicotinic receptor subtypes. Incubation was terminated by rapid filtration on a multimanifold tissue harvester (Brandel, Gaithersburg, Md.) using GF/B filters presoaked in 0.33% polyethyleneimine (w/v) to reduce non-specific binding. Filters were washed 3 times with ice-cold assay buffer and the retained radioactivity was determined by liquid scintillation counting.
(§6) Binding data were expressed as percent total control binding. Replicates for each point were averaged and plotted against the log of drug concentration. The IC50 (concentration of the compound that produces 50% inhibition of binding) was determined by least squares non-linear regression using GraphPad Prism software (GraphPAD, San Diego, Calif.). Ki was calculated using the Cheng-Prusoff equation (Cheng and Prusoff, 1973).

Nicotinic, human α7 = biological target: T2, Nicotinic, human α7 (Homo sapiens, UniProt P36544); assay: Competition binding, human α7 nicotinic receptor (CHO human α7 membranes); conditions: [3H]TC-12018 0.5 nM
T2 construct: host or cells: CHO
Experimental: as §1, with “α7” for “α3β4”, “#CT6201)” for “#CT6021)”, “NM_000746.4 (α7)” for “NM_000743.2”, “NM_024557.4 (hRIC3).” for “NM_000750.3, respectively.”
as §4
Binding to nicotinic receptors was assayed on membranes using standard methods adapted from published procedures (Lippiello and Fernandes 1986; Davies et al., 1999). […] Filters were washed 3 times with ice-cold assay buffer and the retained radioactivity was determined by liquid scintillation counting.
Binding data were expressed as percent total control binding. […] Ki was calculated using the Cheng-Prusoff equation (Cheng and Prusoff, 1973).

Nicotinic, human α3β4 = biological target: T3, Nicotinic, human α3β4 (Homo sapiens, UniProt P30926+P32297); assay: Competition binding, human α3β4 nicotinic receptor (CHO human α3β4 membranes)
T3 construct: host or cells: CHO
Experimental: as §1, §4, §5, §6

human α4β2 (LS) = human α4β2 (LS) (Homo sapiens, UniProt P17787+P43681); assay: Calcium flux inhibition, SH-EP1-human α4β2 maintained at 37° C. (LS); assay type: cell-based
Experimental: as §3
as §2, with “For inhibition studies, the agonist nicotine was used at concentrations of 1 μM for SH-EP1-human α4β2 treated at 29° C. (HS), 10 μM for SH-EP1-human α4β2 maintained at 37° C.” left out

human α4β2 (HS) = human α4β2 (HS) (Homo sapiens, UniProt P17787+P43681); assay: Calcium flux inhibition, SH-EP1-human α4β2 treated at 29° C. (HS); assay type: cell-based
Experimental: as §3, §2

CC[C@@]12CCC[C@]1(NC)[C@H]1CC[C@@H]2C1 was tested, and the IC50 (human α3β4) was 0.17 µM, the “Human CHO α3β4 Ca Flux Imax” value (human α3β4; nicotine 20 μM) was 97 % inh and the Ki (Nicotinic, human α4β2) was 26 µM. It also gave a Ki (Nicotinic, human α7) of 79 µM, a Ki (Nicotinic, human α3β4) of 56 µM and an IC50 (human α4β2 (LS)) of 5 µM. The Emax (human α4β2 (LS); read-out: Human α4β2 Ca Flux Imax [37C/HS]) was 93%, the IC50 (human α4β2 (HS)) was 0.6 µM and the “Human α4β2 Ca Flux Imax [29C/HS]” value (human α4β2 (HS); 29° C.-treated cells (HS), nicotine 1 μM) was 98 % inh.

From patent US20140288185A1, “NICOTINIC RECEPTOR NON-COMPETITIVE MODULATORS” (Targacept, Inc., priority 2011, published 2014)
